# Laboratory results: patent US6916851B2, “Skin care cosmetic methods of sebum control using carboxyalkylates of branched alcohols and/or alkoxylates thereof” (Unilever Home & Personal Care USA, a division of Conopco, …, priority 2002, dated 2005)
# Marks after values point to notes of the source that are not given here.
# Test system: human sebocytes
# Assay: Inhibition of sebocyte lipogenesis (14C-acetate label remaining in sebocytes)
# Assay type: cell-based
# Settings: for IC50: read-out: IC 50 (concentration which provides a 50% sebum suppression relative to the control); for IC50 / radioactive label remaining in the sebocytes, % of Control: 20 hour incubation, 96 well plate; for radioactive label remaining in the sebocytes, % of Control: lower = greater inhibition of lipogenesis; for inhibition of lipogenesis, in words: all tested concentrations (1, 10, 100 μM)
# Method: Secondary cultures of human sebocytes obtained from an adult […] were grown in 96-well tissue culture plates (Packard Co.; Meriden, Conn.) until confluent. Sebocyte growth medium consisted of Clonetics Keratinocyte Basal Medium (KBM) supplemented with 14 μg/ml bovine pituitary extract, 0.4 μg/ml hydrocortisone, 5 μg/ml insulin, 10 ng/ml epidermal growth factor, 1.2×10^−10 M cholera toxin, 100 units/ml penicillin, and 100 μg/ml streptomycin. All cultures were incubated at 37° C. in the presence of 7.5% CO2. Medium was changed three times per week.
# On the day of experimentation, the growth medium was removed and the sebocytes washed three times with sterile Dulbecco's Modified Eagle Medium (DMEM; phenol red free). Fresh DMEM was added to each sample (duplicates, triplicates, or quadruplicates depending on the experiment) with 5 μL of test agent solubilized in ethanol or sterile, distilled water. Controls consisted of addition of ethanol alone or phenol red. Phenol Red, a known sebum suppressive agent, was employed as a positive control.
# Each plate was returned to the incubator for 20 hours followed by the addition of ^14C-acetate buffer (5 mM final concentration, 56 mCi/mmol specific activity). Sebocytes were returned to the incubator for four hours after which each culture was rinsed three times with phosphate buffered saline to remove unbound label. Radioactive label remaining in the sebocytes was harvested and counted using a TopCount-NXT brand scintillation counter (Packard Co., Meriden, Conn.).
# The results that were obtained, expressed in terms of amount of radioactive label remaining in the sebocytes as a percent of control, are summarized in Table 2. A lower radioactive label, i.e. a lower % of control, indicates a greater inhibition of sebocyte lipogenesis.
# The experiments were conducted using the procedure set forth in the Example 3 above, with the concentrations of the compounds varied, in order to determine the concentration for each compound tested which provide a 50% sebum suppression.
molecule,measurement,setting,value
C13 isoalcohol [Compound 4],IC50,,100 µM
tridecylcarboxymethylate [TDCM],"radioactive label remaining in the sebocytes, % of Control",1 μM,84.8* % of Control
same,"radioactive label remaining in the sebocytes, % of Control",10 μM,43.4* % of Control
same,"radioactive label remaining in the sebocytes, % of Control",100 μM,22.8* % of Control
same,"inhibition of lipogenesis, in words",,enhanced inhibition of lipogenesis at all tested concentrations
C13 isoalcohol glycerol [Compound 5],IC50,,> 100 µM
C13 isoalcohol propionitrile [Compound 2],IC50,,> 100 µM
C13 isoalcohol oxypropyl amine [Compound 3],IC50,,~100 µM
iso-tridecyloxy propionic acid [Compound 1],"radioactive label remaining in the sebocytes, % of Control",1 μM,48.7* % of Control
same,"radioactive label remaining in the sebocytes, % of Control",10 μM,34.6* % of Control
same,"radioactive label remaining in the sebocytes, % of Control",100 μM,11.9* % of Control
same,"inhibition of lipogenesis, in words",,enhanced inhibition of lipogenesis at all tested concentrations
same,effectiveness in inhibition of lipogenesis relative to TDCM,comparison of Table 2 data,almost twice as effective as TDCM
same,activity as sebum suppressant relative to the branched alcohol from which it is derived,from IC50 of Table 3,about 20 times
same,IC50,,5 µM
O=S1(=O)OC(c2ccc(O)cc2)(c2ccc(O)cc2)c2ccccc21 [Phenol Red],"radioactive label remaining in the sebocytes, % of Control",100 μM,46.3* % of Control
